One test has as its target T1, c-KIT (Homo sapiens, UniProt P10721).
T1 construct: M-07e cells (human acute megakaryoblastic leukemia cell line) were serum-starved for 4 hours; endogenous in cells; host or cells: M-07e cells (human acute megakaryoblastic leukemia cell line)
The test is described as follows: c-KIT Cell-Based Assay (Example D). The note with it: averaged IC50; phospho-c-KIT in M-07e cells stimulated with 150 ng/ml recombinant human SCF; read-out: cKIT Cell ELISA IC50. As for the experimental part: The ability of compounds of Formula I to inhibit c-KIT activation in cells was determined by the following assay. M-07e cells (human acute megakaryoblastic leukemia cell line) were serum-starved for 4 hours prior to treatment with compounds of Formula I for 1 hour. The concentration of compounds of Formula I was varied over a 9-point, 3-fold dilution series with 5,000 nM typically being the highest dose. Cell culture and treatment were carried out in a humidified 37° C., 5% CO2 incubator. Treated cells were stimulated with 150 ng/ml recombinant human SCF for 4 minutes to induce activation of c-KIT. Cells were lysed in a manner which preserves phosphoproteins, and the lysate was analyzed by ELISA (R&D Systems, Human Phospho-SCF R DuoSet IC DYC3527), in which total c-KIT protein in the lysate is captured and phosphotyrosine residues of c-Kit are detected. A standard curve, made using purified phospho-SCF R protein, was used to quantify phospho-c-KIT in compound-treated wells. A standard 4-parameter logistic model was fit to the inhibitor dose response curves, with the IC50 being defined as the concentration of inhibitor giving 50 percent of control (POC).

The next test addresses T2, cFMS (Homo sapiens, UniProt P07333).
T2 construct: THP-1 cells (human acute monocytic leukemia cell line) were serum-starved for 4 hours; endogenous in cells; host or cells: THP-1 cells (human acute monocytic leukemia cell line)
Description: cFMS Cell-Based Assay (Example C). The note with it: averaged IC50; phospho-cFMS in THP-1 cells stimulated with 250 ng/mL recombinant human MCSF; read-out: cFMS Cell ELISA IC50. As for the experimental part:
The ability of compounds of Formula I to inhibit cFMS activation in cells was determined by the following assay. THP-1 cells (human acute monocytic leukemia cell line) were serum-starved for 4 hours prior to treatment with compounds of Formula I for 1 hour. The concentration of compounds of Formula I was varied over a 9-point, 3-fold dilution series with 5,000 nM typically being the highest dose. Cell culture and treatment were carried out in a humidified 37° C., 5% CO2 incubator. Treated cells were stimulated with 250 ng/mL recombinant human MCSF for 1 minute to induce activation of cFMS. Cells were lysed in a manner which preserves phosphoproteins, and the lysate was analyzed by ELISA (R&D Systems, Human Phospho-M-CSF R DuoSet IC DYC3268), in which total cFMS protein in the lysate is captured and phosphotyrosine residues of cFMS are detected. A standard curve, made using purified phospho-M-CSF R protein, was used to quantify phospho-c-FMS in compound-treated wells. A standard 4-parameter logistic model was fit to the inhibitor dose response curves, with the IC50 being defined as the concentration of inhibitor giving 50 percent of control (POC).
(In general: An ELISA detects its analyte on a solid surface through an enzyme-linked reagent.)

The next test addresses T3, PDGFR beta (Homo sapiens, UniProt P09619).
T3 construct: endogenous in cells; host or cells: HS27 human fibroblast cell line
Description: Phospho PDGFR LICOR Cell Assay (Example B). In kind it is cell-based. The conditions noted are these: averaged IC50; PDGFR beta phosphorylation in HS27 human fibroblast cell line, PDGF-BB stimulation 10 minutes, normalized to total ERK. As for the experimental part: Compounds were screened for inhibition of PDGFR beta phosphorylation in the HS27 human fibroblast cell line. Cells were seeded into a 96 well tissue culture plate, then incubated overnight in a 37° C./5% CO2 incubator. The following day, cells were treated for one hour with test compound dilutions. After stimulation with PDGF-BB ligand for 10 minutes, cells were washed with PBS and fixed in 3.7% formaldehyde in PBS for 10 minutes. This was followed by washing in PBS/0.2% Triton X-100 and permeabilizing in 100% MeOH for 10 minutes. Cells were incubated in blocking buffer for 1 hour. Antibodies to phosphorylated PDGFRβ and total ERK were added to the cells and incubated for 3 hours. After washing with PBS/0.2% Triton X-100, the cells were incubated with fluorescently-labeled secondary antibodies for an additional hour. Cells were then washed with PBS and analyzed for fluorescence at both wavelengths using the Odyssey Infrared Imaging System (LI-COR Biosciences). Phosphorylated PDGFR signal was normalized to total ERK signal. A standard 4-parameter logistic model was fit to the inhibitor dose response curves, with the IC50 being defined as the concentration of inhibitor giving 50 percent of control (POC).

Where a name gives a salt, the structure may show the parent alone.

This passage reports IC50 results from patent US10669269B2, “Substituted N-(1H-indazol-4-yl)imidazo[1,2-a]pyridine-3-carboxamide compounds as type III receptor tyrosine kinase inhibitors” (ARRAY BIOPHARMA INC., priority 2010, dated 2020).

As usually defined, the IC50 is the point on the concentration scale where inhibition reaches its midpoint.

T2 sequence (P07333 20-972): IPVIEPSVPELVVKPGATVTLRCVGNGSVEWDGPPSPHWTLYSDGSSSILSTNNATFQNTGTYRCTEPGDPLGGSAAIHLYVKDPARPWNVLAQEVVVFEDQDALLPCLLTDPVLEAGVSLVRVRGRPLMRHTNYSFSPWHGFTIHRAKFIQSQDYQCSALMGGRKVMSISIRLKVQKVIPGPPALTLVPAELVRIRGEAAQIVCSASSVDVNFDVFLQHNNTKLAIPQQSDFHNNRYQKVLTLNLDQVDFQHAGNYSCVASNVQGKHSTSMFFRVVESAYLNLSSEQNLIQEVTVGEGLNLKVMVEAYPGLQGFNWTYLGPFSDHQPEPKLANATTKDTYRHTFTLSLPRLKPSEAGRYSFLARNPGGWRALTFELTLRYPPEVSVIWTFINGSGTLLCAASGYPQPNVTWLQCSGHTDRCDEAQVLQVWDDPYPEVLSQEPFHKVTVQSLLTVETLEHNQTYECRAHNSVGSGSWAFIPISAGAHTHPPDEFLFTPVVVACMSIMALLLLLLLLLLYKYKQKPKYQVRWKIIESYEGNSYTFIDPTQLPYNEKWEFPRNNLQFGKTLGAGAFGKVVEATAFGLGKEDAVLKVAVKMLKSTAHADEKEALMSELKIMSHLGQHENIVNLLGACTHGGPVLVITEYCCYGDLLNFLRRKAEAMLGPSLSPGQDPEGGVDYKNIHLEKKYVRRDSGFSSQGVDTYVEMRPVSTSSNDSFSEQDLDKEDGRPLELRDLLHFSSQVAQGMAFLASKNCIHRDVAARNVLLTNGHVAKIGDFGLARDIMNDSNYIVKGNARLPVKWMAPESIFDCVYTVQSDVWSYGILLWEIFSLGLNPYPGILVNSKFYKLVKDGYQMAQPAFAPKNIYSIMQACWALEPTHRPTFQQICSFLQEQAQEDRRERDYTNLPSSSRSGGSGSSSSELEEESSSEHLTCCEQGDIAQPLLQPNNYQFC
T1 sequence (P10721 26-976): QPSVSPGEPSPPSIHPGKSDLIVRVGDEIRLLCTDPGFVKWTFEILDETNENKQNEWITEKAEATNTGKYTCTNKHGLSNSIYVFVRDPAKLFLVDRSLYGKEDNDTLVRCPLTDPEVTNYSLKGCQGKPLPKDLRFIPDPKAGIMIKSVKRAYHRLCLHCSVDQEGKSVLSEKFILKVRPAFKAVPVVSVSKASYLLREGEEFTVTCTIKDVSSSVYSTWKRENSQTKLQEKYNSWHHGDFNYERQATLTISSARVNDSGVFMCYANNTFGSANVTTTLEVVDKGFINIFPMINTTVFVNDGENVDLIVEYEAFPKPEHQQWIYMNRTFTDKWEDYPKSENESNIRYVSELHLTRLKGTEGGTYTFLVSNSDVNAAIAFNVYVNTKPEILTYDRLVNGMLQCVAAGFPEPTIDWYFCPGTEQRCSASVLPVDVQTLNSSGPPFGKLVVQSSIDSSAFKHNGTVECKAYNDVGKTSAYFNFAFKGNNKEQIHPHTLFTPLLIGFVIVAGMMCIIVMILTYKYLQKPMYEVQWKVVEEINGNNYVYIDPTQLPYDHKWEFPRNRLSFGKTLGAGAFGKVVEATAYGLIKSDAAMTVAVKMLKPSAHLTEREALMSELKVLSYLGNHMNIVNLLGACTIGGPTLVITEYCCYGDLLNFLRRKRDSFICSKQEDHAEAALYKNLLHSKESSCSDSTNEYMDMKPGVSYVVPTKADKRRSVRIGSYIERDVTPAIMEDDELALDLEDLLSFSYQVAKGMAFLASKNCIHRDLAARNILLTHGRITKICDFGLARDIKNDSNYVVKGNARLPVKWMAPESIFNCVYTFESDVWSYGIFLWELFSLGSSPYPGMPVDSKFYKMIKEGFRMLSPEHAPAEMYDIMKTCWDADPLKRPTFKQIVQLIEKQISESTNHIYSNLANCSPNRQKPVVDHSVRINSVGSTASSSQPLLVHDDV
T3 sequence (P09619 33-1106): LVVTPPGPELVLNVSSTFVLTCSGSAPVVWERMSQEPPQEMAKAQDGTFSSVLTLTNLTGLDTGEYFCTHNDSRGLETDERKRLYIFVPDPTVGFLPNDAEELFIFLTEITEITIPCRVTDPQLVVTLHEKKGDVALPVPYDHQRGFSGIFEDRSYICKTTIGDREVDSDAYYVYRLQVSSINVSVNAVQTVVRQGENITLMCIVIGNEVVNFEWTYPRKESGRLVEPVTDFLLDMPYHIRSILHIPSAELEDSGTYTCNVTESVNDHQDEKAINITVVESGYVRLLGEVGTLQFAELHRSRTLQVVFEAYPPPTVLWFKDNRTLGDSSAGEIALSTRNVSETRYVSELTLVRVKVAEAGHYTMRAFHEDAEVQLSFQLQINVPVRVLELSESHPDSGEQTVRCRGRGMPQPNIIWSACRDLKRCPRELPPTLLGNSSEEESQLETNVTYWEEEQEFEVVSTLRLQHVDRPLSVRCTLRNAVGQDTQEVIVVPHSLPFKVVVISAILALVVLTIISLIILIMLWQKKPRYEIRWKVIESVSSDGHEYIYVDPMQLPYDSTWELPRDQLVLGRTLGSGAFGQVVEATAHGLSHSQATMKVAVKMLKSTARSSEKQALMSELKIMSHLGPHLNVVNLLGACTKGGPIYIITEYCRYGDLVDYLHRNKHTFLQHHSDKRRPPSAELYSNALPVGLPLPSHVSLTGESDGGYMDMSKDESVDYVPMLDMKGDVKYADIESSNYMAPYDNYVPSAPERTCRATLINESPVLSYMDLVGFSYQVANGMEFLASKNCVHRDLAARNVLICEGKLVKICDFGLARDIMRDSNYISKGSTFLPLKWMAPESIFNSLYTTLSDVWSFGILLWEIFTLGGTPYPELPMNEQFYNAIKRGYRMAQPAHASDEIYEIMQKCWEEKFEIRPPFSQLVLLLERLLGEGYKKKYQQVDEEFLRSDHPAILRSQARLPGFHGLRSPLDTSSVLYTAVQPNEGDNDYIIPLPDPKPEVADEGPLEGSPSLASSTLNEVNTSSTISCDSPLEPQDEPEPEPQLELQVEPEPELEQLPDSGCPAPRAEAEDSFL

Take `CN1CCN(CCOc2ccn3c(C(=O)Nc4cccc5c4cnn5Cc4cn(C)cn4)cnc3c2)CC1` [Example 106, N-(1-((1-methyl-1H-imidazol-4-yl)methyl)-1H-indazol-4-yl)-7-(2-(4-methylpiperazin-1-yl)ethoxy)imidazo[1,2-a]pyridine-3-carboxamide dihydrochloride]: the IC50 is 748 nM at c-KIT, 159 nM on cFMS and 558 nM against PDGFR beta.

On to `Cc1ncc(Cn2ncc3c(NC(=O)c4cnc5cc(OCCN6CCN(C)CC6)ccn45)cccc32)s1` [Example 149, 7-(2-(4-methylpiperazin-1-yl)ethoxy)-N-(1-((2-methylthiazol-5-yl)methyl)-1H-indazol-4-yl)imidazo[1,2-a]pyridine-3-carboxamide], for which the IC50 on c-KIT is 4.8 nM; on cFMS it was 2.2 nM; at PDGFR beta it was 1 nM.

On to `Cc1cccc(Cn2nc(C)c3c(NC(=O)c4cnc5cc(-c6ccc(=O)n(C)c6)ccn45)cccc32)n1` [Example 65, N-(3-methyl-1-((6-methylpyridin-2-yl)methyl)-1H-indazol-4-yl)-7-(1-methyl-6-oxo-1,6-dihydropyridin-3-yl)imidazo[1,2-a]pyridine-3-carboxamide], for which the IC50 was 647 nM at c-KIT, 8.5 nM on cFMS and 212 nM against PDGFR beta.

`CN1CCN(CCOc2ccn3c(C(=O)Nc4c(Cl)ccc5c4cnn5Cc4cccc(C(F)(F)F)c4)cnc3c2)CC1` [Example 100, N-(5-chloro-1-(3-(trifluoromethyl)benzyl)-1H-indazol-4-yl)-7-(2-(4-methylpiperazin-1-yl)ethoxy)imidazo[1,2-a]pyridine-3-carboxamide]: the IC50 at c-KIT was determined as 3.3 nM; at cFMS, 23.6 nM; on PDGFR beta it was 6 nM.

In the case of `COCCOc1ccn2c(C(=O)Nc3cccc4c3cnn4CC3CCCN(C(C)=O)C3)cnc2c1` (stereo not drawn) [Example 132, N-(1-((1-acetylpiperidin-3-yl)methyl)-1H-indazol-4-yl)-7-(2-methoxyethoxy)imidazo[1,2-a]pyridine-3-carboxamide], the figures for the IC50 on c-KIT, on cFMS and on PDGFR beta were 604 nM, 134 nM and 170 nM, respectively.

`Cc1cccc(Cn2ncc3c(NC(=O)c4cnc5cc(OCCN6CCN(C)CC6)ccn45)cccc32)n1` [Example 150, 7-(2-(4-methylpiperazin-1-yl)ethoxy)-N-(1-((6-methylpyridin-2-yl)methyl)-1H-indazol-4-yl)imidazo[1,2-a]pyridine-3-carboxamide]: the IC50 came to 14.4 nM at c-KIT, 4.6 nM on cFMS and 1.7 nM against PDGFR beta.

For the compound `CN1CCN(CCOc2ccn3c(C(=O)Nc4cccc5c4cnn5Cc4ccc5[nH]cnc5c4)cnc3c2)CC1` [Example 108, N-(1-((1H-benzo[d]imidazol-5-yl)methyl)-1H-indazol-4-yl)-7-(2-(4-methylpiperazin-1-yl)ethoxy)imidazo[1,2-a]pyridine-3-carboxamide dihydrochloride], the IC50 was determined as 181 nM on c-KIT, 66.7 nM on cFMS and 142 nM on PDGFR beta.

On to `Cc1nn(Cc2csc(C(C)C)n2)c2cccc(NC(=O)c3cnc4cc(OCCN5CCN(C)CC5)ccn34)c12` [Example 12, N-(1-((2-isopropylthiazol-4-yl)methyl)-3-methyl-1H-indazol-4-yl)-7-(2-(4-methylpiperazin-1-yl)ethoxy)imidazo[1,2-a]pyridine-3-carboxamide], for which the IC50 at c-KIT was 50.4 nM; at cFMS, 11.4 nM; on PDGFR beta, 44 nM.

As for `COCCOc1ccn2c(C(=O)Nc3cccc4c3cnn4Cc3cccc(C(N)=O)c3)cnc2c1` [Example 94, N-(1-(3-carbamoylbenzyl)-1H-indazol-4-yl)-7-(2-methoxyethoxy)imidazo[1,2-a]pyridine-3-carboxamide], the half-maximal inhibitory concentration (IC50) on c-KIT was 94.8 nM; on cFMS, 46.9 nM; on PDGFR beta, 65 nM.

As for `COCCOc1ccn2c(C(=O)Nc3cccc4c3cnn4Cc3cccc(OC)c3)cnc2c1` [Example 140, N-(1-(3-methoxybenzyl)-1H-indazol-4-yl)-7-(2-methoxyethoxy)imidazo[1,2-a]pyridine-3-carboxamide], the IC50 on c-KIT is 4.8 nM; at cFMS, 3.1 nM; against PDGFR beta it was 2.5 nM.

With `COCCOc1ccn2c(C(=O)Nc3cccc4c3cnn4Cc3cccnc3)cnc2c1` [Example 121, 7-(2-methoxyethoxy)-N-(1-(pyridin-3-ylmethyl)-1H-indazol-4-yl)imidazo[1,2-a]pyridine-3-carboxamide], the IC50 at c-KIT amounted to 73.1 nM; on cFMS, 20.9 nM; against PDGFR beta, 13.3 nM.

Take `COCCOc1ccn2c(C(=O)Nc3cccc4c3cnn4Cc3cccc(Cl)c3)cnc2c1` [Example 141, N-(1-(3-chlorobenzyl)-1H-indazol-4-yl)-7-(2-methoxyethoxy)imidazo[1,2-a]pyridine-3-carboxamide]: the values for the IC50 at c-KIT, on cFMS and against PDGFR beta were 3.7 nM, 4.4 nM and 1.6 nM, respectively.

Consider `CC(C)c1cccc(Cn2ncc3c(NC(=O)c4cnc5cc(OCCN6CCN(C)CC6)ccn45)cccc32)n1` [Example 138, N-(1-((6-isopropylpyridin-2-yl)methyl)-1H-indazol-4-yl)-7-(2-(4-methylpiperazin-1-yl)ethoxy)imidazo[1,2-a]pyridine-3-carboxamide], for which the IC50 was 3.9 nM at c-KIT, 8.5 nM at cFMS and 1.9 nM on PDGFR beta.

On to `CN1CCN(CCOc2ccn3c(C(=O)Nc4cccc5c4cnn5Cc4ccc(C(F)(F)F)cn4)cnc3c2)CC1` [Example 103, 7-(2-(4-Methylpiperazin-1-yl)ethoxy)-N-(1-((5-(trifluoromethyl)pyridin-2-yl)methyl)-1H-indazol-4-yl)imidazo[1,2-a]pyridine-3-carboxamide trihydrochloride], for which the IC50 stood at 7.2 nM on c-KIT, 7.3 nM on cFMS and 2.7 nM on PDGFR beta.

On to `COCCOc1ccn2c(C(=O)Nc3cccc4c3cnn4Cc3ccncc3)cnc2c1` [Example 111, 7-(2-methoxyethoxy)-N-(1-(pyridin-4-ylmethyl)-1H-indazol-4-yl)imidazo[1,2-a]pyridine-3-carboxamide], for which the values for the IC50 on c-KIT, on cFMS and at PDGFR beta were 451 nM, 150 nM and 449 nM, respectively.

Turning to `Cc1nn(Cc2cc(C)n(C(C)C)n2)c2cccc(NC(=O)c3cnc4cc(OCCN5CCCN(C)CC5)ccn34)c12` [Example 11, N-(1-((1-isopropyl-5-methyl-1H-pyrazol-3-yl)methyl)-3-methyl-1H-indazol-4-yl)-7-(2-(4-methyl-1,4-diazepan-1-yl)ethoxy)imidazo[1,2-a]pyridine-3-carboxamide], the results for the IC50 at c-KIT, on cFMS and against PDGFR beta were 157 nM, 26.2 nM and 46.5 nM, respectively.

With `CC(O)c1ccn2c(C(=O)Nc3cccc4c3cnn4Cc3ccccc3)cnc2c1` (stereo not drawn) [Example 147, N-(1-benzyl-1H-indazol-4-yl)-7-(1-hydroxyethyl)imidazo[1,2-a]pyridine-3-carboxamide], the IC50 is 93.1 nM on c-KIT, 72.6 nM at cFMS and 399 nM against PDGFR beta.
